The text below walks through data of patent US20260176320A1, “MODULATORS OF G-PROTEIN COUPLED RECEPTORS” (priority 2018, published 2026).

SMILES strings stand for the structures. Read-outs that look alike come from different tables or passages of the source. Square brackets hold non-standard residues; d marks the D form. Peptide text beside a SMILES is read from it. * marks the point of attachment. X1 = O=C(CSCC(=O)*)NCCN1C(=O)c2ccccc2C1=O; Aib = CC(C)(N)C(=O)O

Type in all cases: cell-based
The target in assay [1] is T1, GLP-1R (Homo sapiens, UniProt P43220). Kind of assay: PathHunter β-arrestin assay. In short, it runs like this: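 Cells (5,000/well) plated overnight, then exposed to a 22-point 2-fold agonist dilution series in medium with 0.2% BSA for 90 min at 37 °C, 5% CO2. PathHunter detection reagent added; after 3 h at room temperature in the dark, luminescence read.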
T1 sequence (P43220 24-463): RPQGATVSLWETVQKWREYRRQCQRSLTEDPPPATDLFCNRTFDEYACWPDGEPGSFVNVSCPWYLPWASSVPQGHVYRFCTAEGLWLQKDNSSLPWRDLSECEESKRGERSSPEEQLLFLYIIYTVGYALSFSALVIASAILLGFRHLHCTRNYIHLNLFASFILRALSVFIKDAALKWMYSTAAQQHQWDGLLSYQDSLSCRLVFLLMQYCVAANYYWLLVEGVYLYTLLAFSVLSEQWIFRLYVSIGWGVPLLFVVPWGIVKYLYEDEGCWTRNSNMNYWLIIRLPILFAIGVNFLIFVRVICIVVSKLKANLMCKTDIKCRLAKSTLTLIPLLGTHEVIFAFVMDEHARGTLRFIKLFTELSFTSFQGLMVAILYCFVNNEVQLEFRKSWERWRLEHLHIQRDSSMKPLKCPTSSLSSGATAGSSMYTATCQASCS
The next assay addresses T2, GIP-R (Homo sapiens, UniProt P48546).
T2 sequence (P48546 22-466): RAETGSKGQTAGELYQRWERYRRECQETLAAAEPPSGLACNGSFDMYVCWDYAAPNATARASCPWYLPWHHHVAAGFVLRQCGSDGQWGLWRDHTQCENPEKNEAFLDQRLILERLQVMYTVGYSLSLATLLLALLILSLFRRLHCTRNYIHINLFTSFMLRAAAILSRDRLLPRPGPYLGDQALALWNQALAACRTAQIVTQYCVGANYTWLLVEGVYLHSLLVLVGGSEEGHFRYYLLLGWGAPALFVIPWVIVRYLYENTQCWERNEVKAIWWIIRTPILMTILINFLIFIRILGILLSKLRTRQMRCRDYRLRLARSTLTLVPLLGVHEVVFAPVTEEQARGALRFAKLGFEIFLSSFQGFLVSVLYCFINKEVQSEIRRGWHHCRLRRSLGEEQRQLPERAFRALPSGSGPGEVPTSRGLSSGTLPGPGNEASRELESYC
Kind of assay: HitHunter cAMP assay (GIP-R). The note with it: cAMP; for Emax: read-out: (Emax) GIP-R. In a few lines: (§1)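 Suspension cells (10,000/well) in HBSS with 10 mM HEPES, 625 μM IBMX, 0.2% BSA exposed to 22-point 2-fold agonist series in duplicate for 30 min at room temperature. cAMP measured by antibody immunocompetition with overnight development, luminescence read-out.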
On the technique in general: Changes in cAMP serve as a functional read-out for many G protein-coupled receptors.

Assay [2] addresses T1, GLP-1R. Kind of assay: HitHunter cAMP assay (GLP-1R). The note with it: cAMP; for Emax: read-out: (Emax) GLP-1R. In a few lines: as §1
Where [3] appears, read: PathHunter β-arrestin assay, read-out: β-arrestin activity EC50.
Where [4] appears, read: Table 3, read-out: EC50 GIP-R/nM.
The mark [5] stands for this setting: Table 3A, read-out: EC50 GIP-R/nM.
Setting [6] is: Table 3, read-out: EC50 GLP-1R/nM.
[7] abbreviates: Table 3A, read-out: EC50 GLP-1R/nM.

Consider `CC[C@H](C)[C@H](NC(=O)[C@H](CO)NC(=O)[C@H](Cc1ccc(O)cc1)NC(=O)[C@H](CC(=O)O)NC(=O)[C@H](CO)NC(=O)[C@@H](NC(=O)[C@H](Cc1ccccc1)NC(=O)[C@@H](NC(=O)CNC(=O)[C@H](CCC(=O)O)NC(=O)CCNC(=O)CCCN1C(=O)c2ccccc2C1=O)[C@@H](C)O)[C@@H](C)O)C(=O)N[C@@H](Cc1ccc(O)cc1)C(=O)N[C@@H](CC(C)C)C(=O)N[C@@H](CC(=O)O)C(=O)N[C@@H](CCCCN)C(=O)N[C@@H](CCC(N)=O)C(=O)N[C@@H](C)C(=O)N[C@@H](C)C(=O)NC(C)(C)C(=O)N[C@@H](CCC(=O)O)C(=O)N[C@@H](Cc1ccccc1)C(=O)N[C@H](C(=O)N[C@@H](CC(N)=O)C(=O)N[C@@H](Cc1c[nH]c2ccccc12)C(=O)N[C@@H](CC(C)C)C(=O)N[C@@H](CC(C)C)C(=O)N[C@@H](C)C(=O)NCC(=O)NCC(=O)N1CCC[C@H]1C(=O)N[C@@H](CO)C(=O)N[C@@H](CO)C(=O)NCC(=O)N[C@@H](C)C(=O)N1CCC[C@H]1C(=O)N1CCC[C@H]1C(=O)N1CCC[C@H]1C(=O)N[C@@H](CO)C(=O)N[C@@H](CCCCN)C(N)=O)C(C)C` [Compound 146], for which the EC50 was more than 1000 nM on GLP-1R [1] (setting [3]); 10 to 100 nM on GIP-R (setting [4]); 1 to 10 nM at GIP-R (setting [5]); 1 to 10 nM at GLP-1R [2] (setting [6]); 1 to 10 nM on GLP-1R [2] (setting [7]). In addition, the Emax lay within 83 to 97% at GIP-R (Table 3), 83 to 97% on GIP-R (Table 3A), 86 to 92% at GLP-1R [2] (Table 3) and 86 to 92% on GLP-1R [2] (Table 3A).
Regarding `CC[C@H](C)[C@H](NC(=O)[C@H](CO)NC(=O)[C@H](Cc1ccc(O)cc1)NC(=O)[C@H](CC(=O)O)NC(=O)[C@H](CO)NC(=O)[C@@H](NC(=O)[C@H](Cc1ccccc1)NC(=O)[C@@H](NC(=O)CNC(=O)[C@H](CCC(=O)O)NC(=O)CSCC(=O)NCCN1C(=O)c2ccccc2C1=O)[C@@H](C)O)[C@@H](C)O)C(=O)N[C@@H](Cc1ccc(O)cc1)C(=O)N[C@@H](CC(C)C)C(=O)N[C@@H](CC(=O)O)C(=O)N[C@@H](CCCCN)C(=O)N[C@@H](CCC(N)=O)C(=O)N[C@@H](C)C(=O)N[C@H](C(=O)NC(C)(C)C(=O)N[C@@H](CCC(=O)O)C(=O)N[C@@H](Cc1ccccc1)C(=O)N[C@H](C(=O)N[C@@H](CC(N)=O)C(=O)N[C@@H](Cc1c[nH]c2ccccc12)C(=O)N[C@@H](CC(C)C)C(=O)N[C@@H](CC(C)C)C(=O)N[C@@H](C)C(=O)NCC(=O)NCC(=O)N1CCC[C@H]1C(=O)N[C@@H](CO)C(=O)N[C@@H](CO)C(=O)NCC(=O)N[C@@H](C)C(=O)N1CCC[C@H]1C(=O)N1CCC[C@H]1C(=O)N1CCC[C@H]1C(=O)N[C@@H](CO)C(=O)N[C@@H](CCCCN)C(N)=O)C(C)C)C(C)C` [Compound 147] (X1-EGTFTSDYSIYLDKQAV[Aib]EFVNWLLAGGPSSGAPPPSK-NH2), the EC50 at GLP-1R [1] is more than 1000 nM; at GIP-R (EC50 GIP-R/nM, Table 3), less than 0.1 nM; at GIP-R (EC50 GIP-R/nM, Table 3A) it was less than 0.1 nM; on GLP-1R [2] (EC50 GLP-1R/nM, Table 3) it was 1 to 10 nM; on GLP-1R [2] (EC50 GLP-1R/nM, Table 3A) it was 1 to 10 nM. Also, the maximal response (Emax) at GIP-R (Table 3) is 114 to 128%; at GIP-R (Table 3A), 114 to 128%; at GLP-1R [2] (Table 3) it was 87 to 97%; at GLP-1R [2] (Table 3A), 87 to 97%.
Take `CC[C@H](C)[C@H](NC(=O)[C@H](CO)NC(=O)[C@H](Cc1ccc(O)cc1)NC(=O)[C@H](CC(=O)O)NC(=O)[C@H](CO)NC(=O)[C@@H](NC(=O)[C@H](Cc1ccccc1)NC(=O)[C@@H](NC(=O)CNC(=O)[C@H](CCC(=O)O)NC(=O)CCNC(=O)NCCN1C(=O)CSC1=O)[C@@H](C)O)[C@@H](C)O)C(=O)N[C@@H](Cc1ccc(O)cc1)C(=O)N[C@@H](CC(C)C)C(=O)N[C@@H](CC(=O)O)C(=O)N[C@@H](CCCCN)C(=O)N[C@@H](CCC(N)=O)C(=O)N[C@@H](C)C(=O)N[C@@H](C)C(=O)NC(C)(C)C(=O)N[C@@H](CCC(=O)O)C(=O)N[C@@H](Cc1ccccc1)C(=O)N[C@H](C(=O)N[C@@H](CC(N)=O)C(=O)N[C@@H](Cc1c[nH]c2ccccc12)C(=O)N[C@@H](CC(C)C)C(=O)N[C@@H](CC(C)C)C(=O)N[C@@H](C)C(=O)NCC(=O)NCC(=O)N1CCC[C@H]1C(=O)N[C@@H](CO)C(=O)N[C@@H](CO)C(=O)NCC(=O)N[C@@H](C)C(=O)N1CCC[C@H]1C(=O)N1CCC[C@H]1C(=O)N1CCC[C@H]1C(=O)N[C@@H](CO)C(=O)N[C@@H](CCCCN)C(N)=O)C(C)C` [Compound 148]: the EC50 on GLP-1R [1] (setting [3]) was more than 1000 nM; on GIP-R (setting [4]) it was 1 to 10 nM; on GIP-R (setting [5]), 1 to 10 nM; on GLP-1R [2] (setting [6]) it was 0.1 to 1 nM; on GLP-1R [2] (setting [7]), 0.1 to 1 nM. Also, the maximal response (Emax) at GIP-R (Table 3) is 64 to 67%; on GIP-R (Table 3A), 64 to 67%; on GLP-1R [2] (Table 3) it was 99%; on GLP-1R [2] (Table 3A) it was 99%.
As to `CC[C@H](C)[C@H](NC(=O)[C@H](CO)NC(=O)[C@H](CC(C)C)NC(=O)[C@H](CC(=O)O)NC(=O)[C@H](CO)NC(=O)[C@@H](NC(=O)[C@H](Cc1ccccc1)NC(=O)[C@@H](NC(=O)CNC(=O)[C@H](CCC(=O)O)NC(=O)CSCC(=O)NCCN1C(=O)c2ccccc2C1=O)[C@@H](C)O)[C@@H](C)O)C(=O)N[C@@H](Cc1ccc(O)cc1)C(=O)N[C@@H](CC(C)C)C(=O)N[C@@H](CC(=O)O)C(=O)N[C@@H](CCCCN)C(=O)N[C@@H](CCC(N)=O)C(=O)N[C@@H](C)C(=O)N[C@@H](C)C(=O)NC(C)(C)C(=O)N[C@@H](CCC(=O)O)C(=O)N[C@@H](Cc1ccccc1)C(=O)N[C@H](C(=O)N[C@@H](CC(N)=O)C(=O)N[C@@H](Cc1c[nH]c2ccccc12)C(=O)N[C@@H](CC(C)C)C(=O)N[C@@H](CC(C)C)C(=O)N[C@@H](C)C(=O)NCC(=O)NCC(=O)N1CCC[C@H]1C(=O)N[C@@H](CO)C(=O)N[C@@H](CO)C(=O)NCC(=O)N[C@@H](C)C(=O)N1CCC[C@H]1C(=O)N1CCC[C@H]1C(=O)N1CCC[C@H]1C(=O)N[C@@H](CO)C(=O)N[C@@H](CCCCN)C(N)=O)C(C)C` [Compound 151] (X1-EGTFTSDLSIYLDKQAA[Aib]EFVNWLLAGGPSSGAPPPSK-NH2), the EC50 at GLP-1R [1] was more than 1000 nM; at GIP-R (EC50 GIP-R/nM, Table 3), 0.1 to 1 nM; at GIP-R (EC50 GIP-R/nM, Table 3A) it was 0.1 to 1 nM; on GLP-1R [2] (EC50 GLP-1R/nM, Table 3), 1 to 10 nM; on GLP-1R [2] (EC50 GLP-1R/nM, Table 3A) it was 1 to 10 nM. Besides, the Emax on GIP-R (Table 3) was in the range of 117 to 119%; at GIP-R (Table 3A), 117 to 119%; at GLP-1R [2] (Table 3) it was 103 to 107%; at GLP-1R [2] (Table 3A), 103 to 107%.
With `CC[C@H](C)[C@H](NC(=O)[C@H](CO)NC(=O)[C@H](Cc1ccc(O)cc1)NC(=O)[C@H](CC(=O)O)NC(=O)[C@H](CO)NC(=O)[C@@H](NC(=O)[C@H](Cc1ccccc1)NC(=O)[C@@H](NC(=O)CNC(=O)[C@H](CCC(=O)O)NC(=O)CSCC(=O)NCCN1Cc2ccccc2C1=O)[C@@H](C)O)[C@@H](C)O)C(=O)N[C@@H](Cc1ccc(O)cc1)C(=O)N[C@@H](CC(C)C)C(=O)N[C@@H](CC(=O)O)C(=O)N[C@@H](CCCCN)C(=O)N[C@@H](CCC(N)=O)C(=O)N[C@@H](C)C(=O)N[C@@H](C)C(=O)NC(C)(C)C(=O)N[C@@H](CCC(=O)O)C(=O)N[C@@H](Cc1ccccc1)C(=O)N[C@H](C(=O)N[C@@H](CC(N)=O)C(=O)N[C@@H](Cc1c[nH]c2ccccc12)C(=O)N[C@@H](CC(C)C)C(=O)N[C@@H](CC(C)C)C(=O)N[C@@H](C)C(=O)NCC(=O)NCC(=O)N1CCC[C@H]1C(=O)N[C@@H](CO)C(=O)N[C@@H](CO)C(=O)NCC(=O)N[C@@H](C)C(=O)N1CCC[C@H]1C(=O)N1CCC[C@H]1C(=O)N1CCC[C@H]1C(=O)N[C@@H](CO)C(=O)N[C@@H](CCCCN)C(N)=O)C(C)C` [Compound 152], the EC50 on GLP-1R [1] was more than 1000 nM; at GIP-R (EC50 GIP-R/nM, Table 3) it was 1 to 10 nM; on GIP-R (EC50 GIP-R/nM, Table 3A), 1 to 10 nM; at GLP-1R [2] (EC50 GLP-1R/nM, Table 3), 10 to 100 nM; at GLP-1R [2] (EC50 GLP-1R/nM, Table 3A), 10 to 100 nM. In addition, the Emax at GIP-R (Table 3) stood at 103%; on GIP-R (Table 3A) it was 103%; on GLP-1R [2] (Table 3), 85%; on GLP-1R [2] (Table 3A), 85%.

As a reminder, the Emax is the maximal effect, on the per cent scale that the assay sets.
